{
  "source": "paper PMC7391767",
  "about": "“Molecular mechanisms underlying menthol binding and activation of TRPM8 ion channel” (Nature Communications, 2020)",
  "format_in_all_cases": "cell-based",
  "key": {"[1]": {"biological_target": "T1, ANAP-incorporated TRPM8 (Mus musculus, UniProt Q8R4D5, S966X)", "T1 construct": "expressed in transfected cells; host or cells: HEK293 cells, co-transfected with the pANAP vector", "design": "Shifts in ANAP emission, Ave: unit: nm", "settings": "ANAP at S966", "method": "(§1) As fluorescence emission peak of ANAP shifts to a longer wavelength in more hydrophilic environment, we measured the shift in ANAP emission peak to report conformational changes. Fluorescence properties of ANAP may also be affected by other factors such as temperature and pH[31], so we performed our ANAP experiments always at room temperature (22 ± 1°C). To control for changes in solution pH, we added 3 mM HEPES in ANAP imaging solution to buffer the pH at 7.2. We genetically integrated ANAP into a specific site on TRPM8 with special tRNA and synthetase encoded by pANAP vector (Fig. 5d).\n(§2) L-ANAP methyl ester was purchased from AsisChem. pANAP vector was purchased from Addgene. ANAP was incorporated into TRPM8 by introducing a TAG amber stop codon mutation as previously reported. Briefly, after co-transfection of both TRPM8 and pANAP vectors, ANAP was directly added to the culture medium to the final concentration of 20 µM. After 1–2 days, ANAP-containing culture medium was completely changed. Cells were further cultured in ANAP-free medium overnight before experiments.\n(§3) ANAP fluorescence was excited by the Ar laser with a 375/28 excitation filter, a T400lp dichroic mirror, and a 435LP emission filter on an inverted fluorescence microscope (Nikon TE2000-U) using a ×40 oil-immersion objective (NA 1.3). Emission spectrum of ANAP was imaged with an Acton SpectraPro 2150i spectrograph in conjunction with an optiMOS CCD camera (Qimaging, USA). We determined the ANAP emission peak value by fitting the emission spectrum with a skewed Gauss distribution in Igor Pro version 6.1 (WaveMatrix), and then the difference in emission peak values measured in the absence and presence of menthol was reported as the shift of ANAP emission."}, "[2]": {"biological_target": "T2, ANAP-incorporated TRPM8 (Mus musculus, UniProt Q8R4D5, N821X)", "T2 construct": "expressed in transfected cells; host or cells: HEK293 cells, co-transfected with the pANAP vector", "design": "Shifts in ANAP emission, Ave: unit: nm", "settings": "ANAP incorporation site N821", "method": "as §1, §2, §3"}, "[3]": {"biological_target": "T3, ANAP-incorporated TRPM8 (Mus musculus, UniProt Q8R4D5, I865X)", "T3 construct": "expressed in transfected cells; host or cells: HEK293 cells, co-transfected with the pANAP vector", "design": "Shifts in ANAP emission, Ave: unit: nm", "settings": "ANAP incorporation site I865", "method": "as §1, §2, §3"}, "[4]": {"biological_target": "T4, ANAP-incorporated TRPM8 (Mus musculus, UniProt Q8R4D5, D920X)", "T4 construct": "expressed in transfected cells; host or cells: HEK293 cells, co-transfected with the pANAP vector", "design": "Shifts in ANAP emission, Ave: unit: nm", "method": "as §1, §2, §3"}, "[5]": {"biological_target": "T5, ANAP-incorporated TRPM8 (Mus musculus, UniProt Q8R4D5, Q894X)", "T5 construct": "expressed in transfected cells; host or cells: HEK293 cells, co-transfected with the pANAP vector", "design": "Shifts in ANAP emission, Ave: unit: nm", "settings": "ANAP incorporation site Q894", "method": "as §1, §2, §3"}, "[6]": {"biological_target": "T6, ANAP-incorporated TRPM8 (Mus musculus, UniProt Q8R4D5, W896X)", "T6 construct": "expressed in transfected cells; host or cells: HEK293 cells, co-transfected with the pANAP vector", "design": "Shifts in ANAP emission, Ave: unit: nm", "settings": "ANAP incorporation site W896", "method": "as §1, §2, §3"}, "[7]": {"biological_target": "T7, wild-type TRPM8 (Mus musculus, UniProt Q8R4D5)", "T7 construct": "expressed in transfected cells; host or cells: HEK293T", "T7 sequence (Q8R4D5 whole entry)": "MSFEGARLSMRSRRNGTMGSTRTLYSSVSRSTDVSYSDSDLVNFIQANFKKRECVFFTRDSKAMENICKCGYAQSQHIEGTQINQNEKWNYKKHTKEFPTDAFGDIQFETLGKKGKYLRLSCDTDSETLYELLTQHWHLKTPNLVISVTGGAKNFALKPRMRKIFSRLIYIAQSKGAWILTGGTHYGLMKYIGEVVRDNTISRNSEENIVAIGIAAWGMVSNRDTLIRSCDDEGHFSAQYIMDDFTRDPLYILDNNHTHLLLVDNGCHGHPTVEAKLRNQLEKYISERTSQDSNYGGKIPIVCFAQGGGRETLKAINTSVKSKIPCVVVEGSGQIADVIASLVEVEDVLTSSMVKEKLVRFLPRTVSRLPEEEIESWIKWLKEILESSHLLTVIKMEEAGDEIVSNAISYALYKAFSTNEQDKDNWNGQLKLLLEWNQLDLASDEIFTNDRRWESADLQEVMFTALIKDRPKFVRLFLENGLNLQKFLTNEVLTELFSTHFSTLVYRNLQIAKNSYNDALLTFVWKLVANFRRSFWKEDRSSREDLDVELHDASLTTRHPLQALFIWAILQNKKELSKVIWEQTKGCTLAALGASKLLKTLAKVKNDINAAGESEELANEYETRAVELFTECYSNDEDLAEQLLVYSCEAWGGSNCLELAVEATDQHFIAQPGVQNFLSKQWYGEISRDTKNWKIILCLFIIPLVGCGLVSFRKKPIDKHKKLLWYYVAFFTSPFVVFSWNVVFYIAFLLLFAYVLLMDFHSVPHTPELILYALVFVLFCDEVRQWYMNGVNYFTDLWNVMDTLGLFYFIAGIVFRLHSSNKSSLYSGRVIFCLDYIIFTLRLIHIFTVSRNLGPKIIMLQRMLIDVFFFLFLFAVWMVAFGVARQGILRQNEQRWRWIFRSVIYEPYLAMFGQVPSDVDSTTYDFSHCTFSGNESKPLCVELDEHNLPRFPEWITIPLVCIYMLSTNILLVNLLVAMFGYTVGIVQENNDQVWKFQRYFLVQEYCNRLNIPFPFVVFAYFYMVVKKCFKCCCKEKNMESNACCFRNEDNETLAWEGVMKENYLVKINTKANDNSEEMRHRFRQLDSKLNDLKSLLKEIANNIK", "experiment": "whole-cell patch-clamp recording of ligand activation", "method": "Murine TRPM8 was used in this study. Point mutations were made by Fast Mutagenesis Kit V2 (SBS Genetech). Primers used to generate point mutations are summarized in Supplementary Table 2.\nCells were transiently transfected with cDNA constructs by Lipofectamine 3000 (Life Technologies) following the manufacturer’s protocol. Patch-clamp recordings were performed 1–2 days after transfection.\nPatch-clamp recordings were performed with a HEKA EPC10 amplifier controlled by PatchMaster software (HEKA). Whole-cell recordings were performed at ±80 mV. Patch pipettes were prepared from borosilicate glass and fire-polished to resistance of ~4 MΩ. For whole-cell recording, serial resistance was compensated by 60%. For single-channel recordings, patch pipettes were fire-polished to a higher resistance of 6-to-10 MΩ and then recorded in the inside-out configuration. To maximize the chance of obtaining a patch with only one channel, single-channel recordings were performed about 8 h after transfection. A solution with 130 mM NaCl, 10 mM glucose, 0.2 mM EDTA, and 3 mM HEPES (pH 7.2) was used in both bath and pipette for either whole-cell or single-channel recordings. Membrane potential was clamped at +80 mV for single-channel recordings. Current was sampled at 10 kHz and filtered at 2.9 kHz. All recordings were performed at room temperature (22 °C) with the maximum variation of 1 °C.\nLigands such as menthol and its analogs were perfused to membrane patch by a gravity-driven system (RSC-200, Bio-Logic). Bath and ligand solution were delivered through separate tubes to minimize the mixing of solutions. Patch pipette was placed in front of the perfusion tube outlet.\nData from whole-cell recordings were analyzed in Igor Pro version 6.1 (WaveMatrix). EC50 values were derived from fitting a Hill equation to the concentration–response relationship. […] To distinguish these possibilities, dissociation constant (Kd) for ligand binding was estimated assuming the following gating scheme:1 C0↔KdC1↔LO, where L is the equilibrium constant for the final closed-to-open transition."}, "[8]": {"biological_target": "T8, TRPM8 (Mus musculus, UniProt Q8R4D5)", "T8 construct": "expressed in transfected cells; host or cells: HEK293T", "T8 sequence (Q8R4D5 whole entry)": "as above", "experiment": "whole-cell patch-clamp recording in response to a voltage ramp", "settings": "beyond −200 mV; near saturating menthol (0.5 mM)", "excerpt": "Supplementary Figure 8. Deep hyperpolarization antagonized me nthol activation of TRPM8 but not capsaicin activation of TRPV1. ( a) Representative whole-cell patch- clamp recording of menthol activation of TRPM8 in response to a voltage ramp. In the hyperpolarized voltage range, TRPM8 current increased first and then decreased […]\nmM menthol. (b) Representative whole- cell patch- clamp recording of capsaicin activation of TRPV1 in response to a voltage ramp. In the hyperpolarized voltage range, TRPV1 current kept increasing linearly with the lowering of membrane potential, which […]\n(1 picture or pasted object on this page, not shown here)"}, "[9]": {"settings": "average shift, menthol activated vs resting state"}},
  "note": "Several values for one entry are separate records, joined by “and”; a condition that tells them apart may be missing. Equal values may be shown once. Entries after “also recorded” stand apart in the source; their conditions may differ.",
  "data": [
    {"smiles": "CC(C)[C@@H]1CC[C@@H](C)C[C@H]1O", "note": "[menthol, (−)-menthol]", "values": [
      {"measurement": "Shifts in ANAP emission, Ave", "setting": "[1]", "result": 2.10},
      {"measurement": "Shifts_ave", "setting": "[2]; [9]", "result": 0.50, "unit": "nm"},
      {"measurement": "Emission Peak at menthol activated state", "setting": "[2]; single measurement", "result": 493.6, "unit": "nm"},
      {"measurement": "Shifts_ave", "setting": "[3]; [9]", "result": 0.00167, "unit": "nm"},
      {"measurement": "Emission Peak at menthol activated state", "setting": "[3]; single measurement", "result": "471.49 nm and 482.04 nm and 478.09 nm and 488.42 nm and 478.8 nm and 481.12 nm"},
      {"measurement": "Shifts in ANAP emission, Ave", "setting": "[4]; ANAP at D920", "result": 3.47},
      {"measurement": "Shifts_ave", "setting": "[4]; ANAP incorporation site D920, average shift, menthol activated vs resting state", "result": 3.47, "unit": "nm"},
      {"measurement": "Emission Peak at menthol activated state", "setting": "[4]; ANAP incorporation site D920, single measurement", "result": "488.12 nm and 482.56 nm"},
      {"measurement": "Shifts_ave", "setting": "[5]; [9]", "result": 1.82, "unit": "nm"},
      {"measurement": "Emission Peak at menthol activated state", "setting": "[5]; single measurement", "result": "487.18 nm and 484.04 nm and 488.11 nm and 490.92 nm and 483.4 nm"},
      {"measurement": "Shifts_ave", "setting": "[6]; [9]", "result": -1.22, "unit": "nm"},
      {"measurement": "Emission Peak at menthol activated state", "setting": "[6]; single measurement", "result": "474.04 nm and 481.17 nm and 479.96 nm and 475.43 nm"},
      {"measurement": "L (equilibrium constant between closed and open states upon ligand binding), Ave", "setting": "[7]; WT", "result": "4.672 and 4.642"},
      {"measurement": "concentration–response curve value, ave", "setting": "[7]; WT, 1 microM", "result": "0.025 and 0.02453"},
      {"measurement": "concentration–response curve value, single recording", "setting": "[7]; WT, 1 microM", "result": "0.025 and 0.02453"},
      {"measurement": "concentration–response curve value, ave", "setting": "[7]; WT, 10 microM", "result": "0.025 and 0.0249"},
      {"measurement": "concentration–response curve value, single recording", "setting": "[7]; WT, 10 microM", "result": "0.021 and 0.029 and 0.02072 and 0.02909"},
      {"measurement": "concentration–response curve value, ave", "setting": "[7]; WT, 20 microM", "result": 0.043},
      {"measurement": "concentration–response curve value, ave", "setting": "[7]; WT, 30 microM", "result": "0.090 and 0.08976"},
      {"measurement": "concentration–response curve value, ave", "setting": "[7]; WT, 100 microM", "result": "0.426 and 0.4264"},
      {"measurement": "concentration–response curve value, single recording", "setting": "[7]; WT, 100 microM", "result": "0.426 and 0.453 and 0.400 and 0.4256 and 0.4532 and 0.4003"},
      {"measurement": "concentration–response curve value, ave", "setting": "[7]; WT, 500 microM", "result": "0.760 and 0.7604"},
      {"measurement": "concentration–response curve value, single recording", "setting": "[7]; WT, 500 microM", "result": "0.796 and 0.730 and 0.755 and 0.7302 and 0.7548"},
      {"measurement": "concentration–response curve value, ave", "setting": "[7]; WT, 1000 microM", "result": "0.801 and 0.8014"},
      {"measurement": "concentration–response curve value, single recording", "setting": "[7]; WT, 1000 microM", "result": "0.847 and 0.769 and 0.788 and 0.8469 and 0.7692 and 0.7882"},
      {"measurement": "Kd", "setting": "[7]; WT, calculated from concentration–response curves (EC50 and Po max), read-out: Kd, Ave", "result": 966, "unit": "µM"},
      {"measurement": "Hill coefficient", "setting": "[7]; wild-type TRPM8", "result": "1.74 ± 0.06"},
      {"measurement": "effect of deep hyperpolarization on ligand-activated channel", "setting": "[8]", "result": "decreased towards zero; also recorded: closed the channel"}
    ]}
  ]
}
